Measured values from PMC12814364 (Journal of the American Chemical Society, 2025).
Entries after “also recorded” stand apart in the source; their conditions may differ. Read-outs that look alike come from different tables or passages of the source.

Assays:
HBHA110–199 [1] = target: T1, HBHA110–199 (Mycobacterium tuberculosis, UniProt P9WIP9); experiment: ITC binding of HS hexadecasaccharides with HBHA110–199
HBHA110–199 [2] = target: T1, HBHA110–199; details: cited from earlier work
full-length HBHA = target: T2, full-length HBHA (Mycobacterium tuberculosis, UniProt P9WIP9); experiment: Far-UV circular dichroism of full-length HBHA with added sugar; details: varying equivalents added; negative control
T2 sequence (P9WIP9 1-199): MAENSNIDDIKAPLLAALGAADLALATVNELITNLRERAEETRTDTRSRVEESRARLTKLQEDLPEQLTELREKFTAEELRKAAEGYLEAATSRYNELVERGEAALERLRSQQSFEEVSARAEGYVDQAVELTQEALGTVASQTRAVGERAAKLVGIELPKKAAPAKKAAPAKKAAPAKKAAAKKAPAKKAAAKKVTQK

## O=C(O)[C@@H]1O[C@@H](O[C@H]2[C@H](O)[C@@H](NS(=O)(=O)O)[C@@H](O[C@H]3[C@H](O)[C@@H](OS(=O)(=O)O)[C@H]4OC[C@@H]3O4)O[C@@H]2COS(=O)(=O)O)[C@H](OS(=O)(=O)O)[C@@H](O)[C@@H]1O[C@H]1O[C@H](COS(=O)(=O)O)[C@@H](O[C@@H]2O[C@@H](C(=O)O)[C@@H](O[C@H]3O[C@H](COS(=O)(=O)O)[C@@H](O[C@@H]4O[C@@H](C(=O)O)[C@@H](O[C@H]5O[C@H](COS(=O)(=O)O)[C@@H](O)[C@H](O)[C@H]5NS(=O)(=O)O)[C@H](O)[C@H]4OS(=O)(=O)O)[C@H](O)[C@H]3NS(=O)(=O)O)[C@H](O)[C@H]2OS(=O)(=O)O)[C@H](O)[C@H]1NS(=O)(=O)O [HS8]
HBHA110–199 [1]; 25 °C, Tris buffer pH 7.6
  n (sugar-to-protein binding ratio): 0.56 ± 0.01
  ΔG: –7.68 ± 0.08 kcal/mol
  ΔH: 5.38 ± 0.05 kcal/mol
  –TΔS: –13.05 ± 0.07 kcal/mol
HBHA110–199 [1]; Tris buffer pH 7.6, 25 °C, two trials, average ± standard deviation, read-out: dissociation constant, KD
  Kd: 2.4 ± 0.3 µM
HBHA110–199 [2]; Average of Repeat I P(KKAA), residue 160-164, read-out: Dissociation constant from NMR cross-peak movement, average
  Kd: 24.5 µM
HBHA110–199 [2]; Average of Repeat II P(AKKAA), residue 165-170, read-out: Dissociation constant from NMR cross-peak movement, average
  Kd: 11.8 µM
HBHA110–199 [2]; Average of Repeat III P(AKKAA), residue 171-176, read-out: Dissociation constant from NMR cross-peak movement, average
  Kd: 6.9 µM
HBHA110–199 [2]; Average of Repeat IV P(AKKAAAKKA), residue 177-186, read-out: Dissociation constant from NMR cross-peak movement, average
  Kd: 6.2 µM
HBHA110–199 [2]; Average of Repeat V P(AKKAAAKKV), residue 187-196, read-out: Dissociation constant from NMR cross-peak movement, average
  Kd: 4.6 µM
HBHA110–199 [2]; protein-to-sugar molar ratio 1:2, all residues, reported previously, ref Huang et al., 2017
  average Δδresidue (weighted chemical shift deviation) of HBHA110–199: 0.019 ppm
HBHA110–199 [2]; residue A163, Repeat I, read-out: Dissociation constant from NMR cross-peak movement
  Kd: 20.7 µM
HBHA110–199 [2]; residue A164, Repeat I, read-out: Dissociation constant from NMR cross-peak movement
  Kd: 22.2 µM
HBHA110–199 [2]; residue A166, Repeat II, read-out: Dissociation constant from NMR cross-peak movement
  Kd: 14.4 µM
HBHA110–199 [2]; residue A169, Repeat II, read-out: Dissociation constant from NMR cross-peak movement
  Kd: 14.6 µM
HBHA110–199 [2]; residue A170, Repeat II, read-out: Dissociation constant from NMR cross-peak movement
  Kd: 8.3 µM
HBHA110–199 [2]; residue A172, Repeat III, read-out: Dissociation constant from NMR cross-peak movement
  Kd: 10.3 µM
HBHA110–199 [2]; residue A175, Repeat III, read-out: Dissociation constant from NMR cross-peak movement
  Kd: 8.5 µM
HBHA110–199 [2]; residue A176, Repeat III, read-out: Dissociation constant from NMR cross-peak movement
  Kd: 5 µM
HBHA110–199 [2]; residue A178, Repeat IV, read-out: Dissociation constant from NMR cross-peak movement
  Kd: 4.8 µM
HBHA110–199 [2]; residue A181, Repeat IV, read-out: Dissociation constant from NMR cross-peak movement
  Kd: 4.8 µM
HBHA110–199 [2]; residue A182, Repeat IV, read-out: Dissociation constant from NMR cross-peak movement
  Kd: 4.6 µM
HBHA110–199 [2]; residue A183, Repeat IV, read-out: Dissociation constant from NMR cross-peak movement
  Kd: 4.6 µM
HBHA110–199 [2]; residue A186, Repeat IV, read-out: Dissociation constant from NMR cross-peak movement
  Kd: 3.1 µM
HBHA110–199 [2]; residue A188, Repeat V, read-out: Dissociation constant from NMR cross-peak movement
  Kd: 4.8 µM
HBHA110–199 [2]; residue A191, Repeat V, read-out: Dissociation constant from NMR cross-peak movement
  Kd: 5.3 µM
HBHA110–199 [2]; residue A192, Repeat V, read-out: Dissociation constant from NMR cross-peak movement
  Kd: 4.6 µM
HBHA110–199 [2]; residue A193, Repeat V, read-out: Dissociation constant from NMR cross-peak movement
  Kd: 4.8 µM
HBHA110–199 [2]; residue K161, Repeat I, read-out: Dissociation constant from NMR cross-peak movement
  Kd: 9.8 µM
HBHA110–199 [2]; residue K162, Repeat I, read-out: Dissociation constant from NMR cross-peak movement
  Kd: 45.3 µM
HBHA110–199 [2]; residue K167, Repeat II, read-out: Dissociation constant from NMR cross-peak movement
  Kd: 4.2 µM
HBHA110–199 [2]; residue K168, Repeat II, read-out: Dissociation constant from NMR cross-peak movement
  Kd: 17.2 µM
HBHA110–199 [2]; residue K173, Repeat III, read-out: Dissociation constant from NMR cross-peak movement
  Kd: 4.2 µM
HBHA110–199 [2]; residue K174, Repeat III, read-out: Dissociation constant from NMR cross-peak movement
  Kd: 6.6 µM
HBHA110–199 [2]; residue K179, Repeat IV, read-out: Dissociation constant from NMR cross-peak movement
  Kd: 6.6 µM
HBHA110–199 [2]; residue K180, Repeat IV, read-out: Dissociation constant from NMR cross-peak movement
  Kd: 4.1 µM
HBHA110–199 [2]; residue K184, Repeat IV, read-out: Dissociation constant from NMR cross-peak movement
  Kd: 18.3 µM
HBHA110–199 [2]; residue K185, Repeat IV, read-out: Dissociation constant from NMR cross-peak movement
  Kd: 4.5 µM
HBHA110–199 [2]; residue K189, Repeat V, read-out: Dissociation constant from NMR cross-peak movement
  Kd: 5.9 µM
HBHA110–199 [2]; residue K190, Repeat V, read-out: Dissociation constant from NMR cross-peak movement
  Kd: 4.1 µM
HBHA110–199 [2]; residue K194, Repeat V, read-out: Dissociation constant from NMR cross-peak movement
  Kd: 4.9 µM
HBHA110–199 [2]; residue K195, Repeat V, read-out: Dissociation constant from NMR cross-peak movement
  Kd: 4.6 µM
HBHA110–199 [2]; residue V196, Repeat V, read-out: Dissociation constant from NMR cross-peak movement
  Kd: 2.7 µM

## CC(=O)N[C@H]1[C@@H](O[C@H]2[C@H](O)[C@@H](O)[C@H]3OC[C@@H]2O3)O[C@H](CO)[C@@H](O[C@@H]2O[C@@H](C(=O)O)[C@@H](O[C@H]3O[C@H](CO)[C@@H](O[C@@H]4O[C@@H](C(=O)O)[C@@H](O[C@H]5O[C@H](CO)[C@@H](O[C@@H]6O[C@@H](C(=O)O)[C@@H](O[C@H]7O[C@H](CO)[C@@H](O[C@@H]8O[C@@H](C(=O)O)[C@@H](O[C@H]9O[C@H](CO)[C@@H](O[C@@H]%10O[C@@H](C(=O)O)[C@@H](O[C@H]%11O[C@H](CO)[C@@H](O[C@@H]%12O[C@@H](C(=O)O)[C@@H](O[C@H]%13O[C@H](CO)[C@@H](O[C@@H]%14O[C@@H](C(=O)O)[C@@H](O[C@H]%15O[C@H](CO)[C@@H](O)[C@H](O)[C@H]%15NC(C)=O)[C@H](O)[C@H]%14O)[C@H](O)[C@H]%13NC(C)=O)[C@H](O)[C@H]%12O)[C@H](O)[C@H]%11NC(C)=O)[C@H](O)[C@H]%10O)[C@H](O)[C@H]9NC(C)=O)[C@H](O)[C@H]8O)[C@H](O)[C@H]7NC(C)=O)[C@H](O)[C@H]6O)[C@H](O)[C@H]5NC(C)=O)[C@H](O)[C@H]4O)[C@H](O)[C@H]3NC(C)=O)[C@H](O)[C@H]2O)[C@@H]1O [compound 20]
HBHA110–199 [1]; Tris buffer pH 7.6, 25 °C, two trials, average ± standard deviation
  dissociation constant, KD: no detectable binding; also recorded: no binding detected
full-length HBHA
  conformational change of full-length HBHA (CD): did not induce any significant conformational change
